From ChEMBL document CHEMBL3286135, “Antiviral C-25 epimers of 26-acetoxy steroids from the South China Sea gorgonian Echinogorgia rebekka” (J Nat Prod, 2014)
Calls of active or inactive are those of the source. No cut-off for these calls is given here.

Columns and labels:
Nocardia brasiliensis = experiment: Antibacterial activity against Nocardia brasiliensis by broth dilution assay; assay type: functional, organism-based
[1] = Cytotoxicity against mock-infected human Hep2 cells by XTT assay; assay type: cell-based, HEp-2; conditions: read-out: TC50 (the source's name)
Staphylococcus aureus = experiment: Antibacterial activity against Staphylococcus aureus by broth dilution assay; assay type: functional, organism-based
Pseudomonas putida = experiment: Antibacterial activity against Pseudomonas putida by broth dilution assay; assay type: functional, organism-based
[2] = tested on: Tetragenococcus halophilus; experiment: Antibacterial activity against Tetragenococcus halophilus by broth dilution assay; assay type: functional
Escherichia coli = experiment: Antibacterial activity against Escherichia coli by broth dilution assay; assay type: functional, organism-based
A549 = experiment: Cytotoxicity against human A549 cells by SRB assay; assay type: functional, cell-based
HeLa = experiment: Cytotoxicity against human HeLa cells by SRB assay; assay type: functional, cell-based
Vibrio parahaemolyticus = experiment: Antibacterial activity against Vibrio parahaemolyticus by broth dilution assay; assay type: functional, organism-based
K562 = experiment: Cytotoxicity against human K562 cells by MTT assay; assay type: functional, cell-based
[3] = tested on: Staphylococcus epidermidis; experiment: Antibacterial activity against Staphylococcus epidermidis by broth dilution assay; assay type: functional, organism-based
HL-60 = experiment: Cytotoxicity against human HL60 cells by MTT assay; assay type: functional, cell-based
[4] = Therapeutic ratio of TC50 for mock-infected human Hep2 cells to IC50 for Respiratory syncytial virus infected in human Hep2 cells; assay type: ADME, cell-based, HEp-2; conditions: read-out: TI
Bacillus cereus = experiment: Antibacterial activity against Bacillus cereus by broth dilution assay; assay type: functional, organism-based
[5] = tested on: Respiratory syncytial virus; experiment: Antiviral activity against Respiratory syncytial virus infected in human Hep2 cells assessed as virus-induced cytopathicity by XTT assay; assay type: functional, organism-based; conditions: HEp-2

CC(=O)OC[C@H](C)[C@H](C)/C=C/[C@@H](C)[C@H]1CC[C@H]2[C@@H]3CC(=O)[C@@]4(O)C[C@@H](O)CC[C@]4(C)[C@H]3CC[C@]12C
Activity (Nocardia brasiliensis): inactive | CC50 [1]: 24.4 µM | Activity (Staphylococcus aureus): inactive | Activity (Pseudomonas putida): inactive | Activity [2]: inactive | Activity (Escherichia coli): inactive | Activity (A549): inactive | Activity (HeLa): inactive | Activity (Vibrio parahaemolyticus): inactive | Activity (K562): inactive | Activity [3]: inactive | Activity (HL-60): inactive | selectivity ratio [4]: 128 | Activity (Bacillus cereus): inactive | IC50 [5]: 0.19 µM

CC(=O)OCC(C)/C=C/[C@@H](C)[C@H]1CC[C@H]2[C@@H]3CC(=O)[C@@]4(O)C[C@@H](O)CC[C@]4(C)[C@H]3CC[C@]12C (stereo not given in full)
Activity (Nocardia brasiliensis): inactive | CC50 [1]: 12.9 µM | Activity (Staphylococcus aureus): inactive | Activity (Pseudomonas putida): inactive | Activity [2]: inactive | Activity (Escherichia coli): inactive | Activity (Vibrio parahaemolyticus): inactive | IC50 (K562): 4.19 µM | Activity [3]: inactive | selectivity ratio [4]: 4 | Activity (Bacillus cereus): inactive | IC50 [5]: 3.23 µM

NC(=O)c1ncn([C@@H]2O[C@H](CO)[C@@H](O)[C@H]2O)n1 [RIBAVIRIN]
CC50 [1]: > 3000 µM | selectivity ratio [4]: > 147 | IC50 [5]: 20.4 µM

CC(=O)OC[C@@H](C)[C@H](C)/C=C/[C@@H](C)[C@H]1CC[C@H]2[C@@H]3CC(=O)[C@@]4(O)C[C@@H](O)CC[C@]4(C)[C@H]3CC[C@]12C
Activity (Nocardia brasiliensis): inactive | CC50 [1]: 0.38 µM | Activity (Staphylococcus aureus): inactive | Activity (Pseudomonas putida): inactive | Activity [2]: inactive | Activity (Escherichia coli): inactive | Activity (Vibrio parahaemolyticus): inactive | IC50 (K562): 6.36 µM | Activity [3]: inactive | IC50 (HL-60): 8.99 µM | selectivity ratio [4]: 2 | Activity (Bacillus cereus): inactive | IC50 [5]: 0.19 µM

CC(=O)OC[C@@H](C)C/C=C/[C@@H](C)[C@H]1CC[C@H]2[C@@H]3CC(=O)[C@@]4(O)C[C@@H](O)CC[C@]4(C)[C@H]3CC[C@]12C
Activity (Nocardia brasiliensis): inactive | CC50 [1]: 12.6 µM | Activity (Staphylococcus aureus): inactive | Activity (Pseudomonas putida): inactive | Activity [2]: inactive | Activity (Escherichia coli): inactive | Activity (Vibrio parahaemolyticus): inactive | IC50 (K562): 0.85 µM | Activity [3]: inactive | selectivity ratio [4]: 16 | Activity (Bacillus cereus): inactive | IC50 [5]: 0.78 µM
